From BindingDB's records for doi:10.1016/s0960-894x(01)00648-5 (Merck Research Laboratories, 2001)

Experiments:
[1] = target: T1, Genome polyprotein (Human rhinovirus sp., UniProt Q4U254); assay: ChEBML_160894
T1 sequence (Q4U254 whole entry): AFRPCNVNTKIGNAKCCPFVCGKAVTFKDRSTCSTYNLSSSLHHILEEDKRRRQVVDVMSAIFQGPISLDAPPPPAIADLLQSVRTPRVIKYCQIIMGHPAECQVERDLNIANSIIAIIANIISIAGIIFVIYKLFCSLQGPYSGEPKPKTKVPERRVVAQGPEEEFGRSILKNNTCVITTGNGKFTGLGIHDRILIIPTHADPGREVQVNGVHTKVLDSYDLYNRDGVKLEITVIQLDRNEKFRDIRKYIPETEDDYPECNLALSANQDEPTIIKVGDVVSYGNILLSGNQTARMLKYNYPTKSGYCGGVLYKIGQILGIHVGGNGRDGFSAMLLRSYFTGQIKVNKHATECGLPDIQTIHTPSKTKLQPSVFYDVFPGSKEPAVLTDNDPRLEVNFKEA
Excerpt: (§1) Inhibitory activity against HRV 3Cpro using HPLC assay

[2] = target: T2, Genome polyprotein (Human rhinovirus sp., UniProt Q04107); assay: ChEBML_160894
T2 sequence (Q04107 whole entry): T1 sequence (Q4U254 whole entry)
Excerpt: as §1

Row | SMILES | IC50 [1] [µM] | IC50 [2] [µM]
1 | O=C1C(=O)c2ccccc2-c2ccccc21 | 1.4 | –
2 | COC1=CC(=O)c2ccccc2C1=O | 26 | –
3 | O=C1CC(=O)c2ccccc2C1=O | > 150 | –
4 | O=C1C=Cc2ccccc2C1=O [1,2-dihydronaphthalene-1,2-dione] | – | 8.2
5 | Cc1cc(O)c2c(c1)C(=O)c1cc(O)cc(O)c1C2=O [1,3,8-trihydroxy-6-methylanthra-9,10-quinone] | – | > 150
6 | O=C1C=CC(=O)c2ccccc21 [1,4-dihydronaphthalene-1,4-dione] | 21 | –
7 | COC1=CC(=O)c2ccc(C)cc2C1=O [2-Methoxy-7-methyl-[1,4]naphthoquinone] | 10.5 | –
8 | COC1=CC(=O)c2c(O)cc(C)cc2C1=O [2-methoxy-7-methyljuglone] | 2.4 | –
9 | Cc1cc(O)c2c(c1)C(=O)C=CC2=O [5-Hydroxy-7-methyl-[1,4]naphthoquinone] | 6.4 | –
10 | COC1=CC(=O)c2c(cc(C)c(C(C)=O)c2O)C1=O [6-Acetyl-5-hydroxy-2-methoxy-7-methyl-[1,4]naphthoquinone] | 4.6 | –
11 | CC(=O)c1c(C)cc2c(c1O)C(=O)C(=O)CC2=O [7-Acetyl-2,8-dihydroxy-6-methyl-[1,4]naphthoquinone] | > 150 | –
12 | COC1=CC(=O)c2cc(C)c(C(C)=O)c(OC)c2C1=O [7-Acetyl-2,8-dimethoxy-6-methyl-[1,4]naphthoquinone] | 124 | –
13 | CC1Cc2cc(O)c3c(c2C(=O)O1)C(=O)C=C(C1=CC(=O)c2c(c(O)cc4c2C(=O)OC(C)C4)C1=O)C3=O (stereo not drawn) [9,9'-Dihydroxy-2,2'-dimethyl-1,2,1',2'-tetrahydro-[7,7']bi[3-oxa-phenanthrenyl]-4,5,8,4',5',8'-hexaone] | – | 6
14 | C[C@@H]1CC2=C(C(=O)c3c(O)cc(O)cc3C2=O)[C@@H](O)O1 [(1S,3R)-1,7,9-Trihydroxy-3-methyl-3,4-dihydro-1H-benzo[g]isochromene-5,10-dione] | 47 | –
15 | COC1=CC(=O)c2c(cc(C)c(C(C)=O)c2OC(C)=O)C1=O [Acetic acid 2-acetyl-6-methoxy-3-methyl-5,8-dioxo-5,8-dihydro-naphthalen-1-yl ester] | 8.1 | –
16 | COC1=CC(=O)c2c(OC(C)=O)cc(C)cc2C1=O [Acetic acid 6-methoxy-3-methyl-5,8-dioxo-5,8-dihydro-naphthalen-1-yl ester] | 40 | –
17 | O=C1C=CC(=O)c2c1ccc1c2ccc2ccccc21 [Chrysene-1,4-dione] | 46.5 | –
18 | COc1cc(O)c2c(c1)C(=O)c1cc(C)cc(O)c1C2=O [physcion] | > 150 | –
